Legend:
[1] = test system: human myeloid cell line KG-1; assay: Leukemia cell line KG-1 growth curve, alone or with VP-16; format: cell-based; settings: for effect of compound alone on KG-1 growth, high dose: high (higher) dose of compound (added at 2 uM and 5 uM); for effect of compound alone on KG-1 growth, high dose / potentiation of low dose VP-16 on KG-1 growth, high dose of compound / effect of compound alone on KG-1 growth, lower/low dose / potentiation of low dose VP-16 on KG-1 growth, lower/low dose of compound: counted daily for 4 days; for potentiation of low dose VP-16 on KG-1 growth, high dose of compound: high (higher) dose of compound + VP-16 0.05 uM; for effect of compound alone on KG-1 growth, lower/low dose: lower (low) dose of compound (added at 2 uM and 5 uM); for potentiation of low dose VP-16 on KG-1 growth, lower/low dose of compound: lower (low) dose of compound + VP-16 0.05 uM; for KG-1 Leukemia potency / KG-1 Leukemia cooperativity with VP-16: summary table / FIG. 34
Protocol: (§1) The human myeloid cell line KG-1 was grown in RPMI1640 with 10% FBS. The small cell lung cancer cell line CRL5898 was grown in HITES medium (Dulbecco's medium: Ham's F12, 50:50 mix, Insulin 0.005 mg/ml Transferrin 0.01 mg/ml Sodium selenite 30 nM Hydrocortisone 10 nM beta-estradiol 10 nM HEPES 10 mM L-glutamine 2 mM (in addition to that in the base medium)). Both cell lines were seeded at 10,000 cells/ml in the appropriate medium in 6 well plates. The Chem Div compounds were resuspended as 5 mM stock solutions in DMSO. The Chem Div compounds were added alone at 2 uM and 5 uM or in combination with VP-16 (also called etoposide) at 0.05 uM. DMSO was added to the control wells. Cells were plated and treated in triplicate and counted daily for 4 days.

[2] = test system: human Pancreatic cancer cell line BXPC3; assay: Colony formation assay, pancreatic cancer cell line BXPC3; format: cell-based; settings: for BxPC3 Pancreatic activity: summary table / FIG. 34; for potentiation of gemcitabine (surviving colonies) / activity on their own against the pancreatic cancer cells (surviving colonies): BXPC3, FIG. 16; for potentiation of gemcitabine (surviving colonies): 2 μM inhibitor + 0.3 μg/ml gemcitabine, 18 hrs, normalized to gemcitabine; for activity on their own against the pancreatic cancer cells (surviving colonies): 2 μM inhibitor, 18 hrs treatment, colonies after 14 days, normalized to DMSO
Protocol: (§2) The human Pancreatic cancer cell line BXPC3 was plated (4000 cells per plate with a ˜10% plating efficiency) in 10 cm dishes, using 10 ml of RPMI media (always with 10% FBS) per plate, and placed in a […] incubator (5% CO2) for 24 hrs. After 24 hrs, each plate was treated with one or a combination of the following agents: DMSO (0.2% in solution), 0.3 μg/ml of gemcitabine (dissolved in 1×PBS), and/or 2 μM of each Metnase/Intnase inhibitor (dissolved in DMSO). When the DMSO, gemcitabine, and/or inhibitors were added, the plates were swirled several times to assure mixing. After the agents were added to the RPMI, the plates were put back into the incubators for 18 hrs. Following 18 hrs treatment, the media was removed and the cells were washed twice with 1×PBS. Ten ml of fresh RPMI with 10% FBS was added and the cells were placed back into the incubator for 14 days. After the incubation period that will allow surviving cells to form colonies, the media was discarded and surviving colonies were stained with methylene blue. Colonies, a reflection of a single surviving cell that expanded, were counted to measure survival. All experiments were run in triplicate. Experiments were normalized to either DMSO (black asterices) or gemcitabine (red asterices).

cancer cells = assay: Summary statements: cytotoxicity for cancer cells alone and with chemotherapy; format: cell-based; settings: summary statement referring to figures
Protocol: as §2
(§3) The human colon cancer cell line SW48 was plated (1000 cells per plate with a ˜20% plating efficiency) in 10 cm dishes, using 10 ml of DMEM media (always with 10% FBS) per plate, and placed in a […] incubator (5% CO2) for 24 hrs. After 24 hr, each plate was treated with one or a combination of the following agents: DMSO (0.2% in solution), 3 μM 5-fluorouracil (5FU, dissolved in 1×PBS), and/or 2 μM of each Metnase/intnase inhibitor (dissolved in DMSO). When the DMSO, 5FU, and/or inhibitors were added, the plates were swirled several times to assure mixing. After agents were added to the DMEM, the plates were put back into the incubators for 18 hr. Following 18 hr treatment, the media was removed and the cells were washed twice with 1×PBS. Ten milliliters of fresh DMEM was added and the cells were placed back into the incubator for 7-14 days. After the incubation period that will allow surviving cells to grow and form colonies, media was discarded and surviving colonies were stained with methylene blue. Colonies, a reflection of a single surviving cell that expanded, were counted to measure survival. All experiments were run in triplicate. Experiments were normalized to either DMSO (black asterices) or 5FU (red asterices).
as §1

[3] = test system: small cell lung cancer cell line CRL5898; assay: Small cell lung cancer cell line CRL5898 growth, alone or with VP-16; format: cell-based; settings: for CLR5898 Small Cell Lung Cancer cooperativity with VP-16 / CLR5898 Small Cell Lung Cancer potency: summary table / FIG. 34
Protocol: as §1

[4] = test system: human colon cancer cell line SW48; assay: Colony formation assay, colon cancer cell line SW48; format: cell-based; settings: FIG. 17; for activity on their own against the colon cancer cells (surviving colonies): 2 μM inhibitor, 18 hr treatment, colonies after 7-14 days, normalized to DMSO
Protocol: as §3

[5] = in vivo; cited from earlier work
CYP3A = settings: cited from earlier work

| SMILES | effect of compound alone on KG-1 growth, high dose [1] | potentiation of low dose VP-16 on KG-1 growth, high dose of compound [1] | effect of compound alone on KG-1 growth, lower/low dose [1] | potentiation of low dose VP-16 on KG-1 growth, lower/low dose of compound [1] | KG-1 Leukemia potency [1] | BxPC3 Pancreatic activity [2] | cytotoxicity for cancer cells with chemotherapy agents (potentiation) (cancer cells) | cytotoxicity for cancer cells, compound alone (cancer cells) | KG-1 Leukemia cooperativity with VP-16 [1] | CLR5898 Small Cell Lung Cancer cooperativity with VP-16 [3] | CLR5898 Small Cell Lung Cancer potency [3] | potentiation of 5FU (surviving colonies) ([4]; 2 μM inhibitor + 3 μM 5-fluorouracil, 18 hr, normalized to 5FU) | activity on their own against the colon cancer cells (surviving colonies) [4] | potentiation of gemcitabine (surviving colonies) [2] | activity on their own against the pancreatic cancer cells (surviving colonies) [2] | potentiation of low dose VP-16 on CRL5898 cell growth ([3]; FIG. 33) | effect of compound alone on CRL5898 cell growth ([3]; FIG. 33, compared with low dose VP-16) | Serum half-life [5] | CYP3A induction (CYP3A) |
| --- | --- | --- | --- | --- | --- | --- | --- | --- | --- | --- | --- | --- | --- | --- | --- | --- | --- | --- | --- |
| CCn1cc(C(C)=O)c(=O)c2cc(F)c(N3CCN(C(=O)c4ccc(Cl)cc4)CC3)cc21 [5076-4170] | slowed the growth of the leukemia cell line KG-1 and caused cell death with prolonged treatment | some potentiation on the anti-proliferative effect of low dose VP-16 | slowed the growth of the leukemia cell line KG-1 and caused cell death with prolonged treatment | some potentiation on the anti-proliferative effect of low dose VP-16 | High potency, probably below 1 uM. | inactive | increased the cytotoxicity of chemotherapy when added | cytotxoic for cancer cells alone | – | – | – | – | – | – | – | – | – | – | – |
| CCn1cc(C(=O)O)c(=O)c2cc(F)c(N3CCN(C(=O)c4ccc(OC(C)=O)cc4)CC3)cc21 [5082-2438] | decreased KG-1 leukemia cell growth, similar to low dose VP-16 alone | potentiated the anti-proliferative effect of low dose VP-16 and prolonged treatment resulted in cell death | decreased KG-1 leukemia cell growth, similar to low dose VP-16 alone | potentiated the effect of low dose VP-16 and prolonged treatment resulted in cell death | Potency in uM | weak | increased the cytotoxicity of chemotherapy when added | cytotxoic for cancer cells alone | Cooperativity with VP-16 | No or very | Potency in uM | – | – | – | – | – | – | – | – |
| CC(C)n1cc(C(=O)O)c(=O)c2ccccc21 [5483-0023] | decreased KG-1 leukemia cell growth especially with longer treatment | potentiated the anti-proliferative effect of low dose VP-16 | decreased KG-1 leukemia cell growth, similar to low dose VP-16 | potentiated the anti-proliferative effect of low dose VP-16 | Potency in uM | Active | increased the cytotoxicity of chemotherapy when added | cytotxoic for cancer cells alone | Cooperativity with VP-16 | No or very | Potency in uM | potentiate 5FU | activity on their own | potentiate gemcitabine | activity on their own | – | – | – | – |
| Cc1ccc(NCC(=O)Nc2cccc(C(=O)O)c2O)cc1 [8017-3379] | inhibited KG-1 leukemia cell growth even more than low dose VP-16 alone | no potentiation on the effect of low dose VP-16 | inhibited KG-1 leukemia cell growth even more than low dose VP-16 alone | no potentiation on the effect of low dose VP-16 | Potency in uM | inactive | – | cytotxoic for cancer cells alone | No or very weak | No or very | Potency in uM | – | – | – | – | some potentiation of the anti-proliferative effect of low dose VP-16 | inhibited cell growth of the small cell lung cancer cell line CRL5898, the same as low dose VP-16 | – | – |
| O=C(O)c1ccc(N2C(=O)Nc3ccccc3N2O)cc1O [D0045-0007] | – | – | decreased KG-1 leukemia cell growth compared to control | potentiated the anti-proliferative effect of low dose VP-16 | – | – | increased the cytotoxicity of chemotherapy when added | cytotxoic for cancer cells alone | – | – | – | – | activity on their own | potentiate gemcitabine | activity on their own | – | – | – | – |
| COc1cc2c(cc1Cc1cccc(Cl)c1F)c(=O)c(C(=O)O)cn2[C@H](CO)C(C)C [Elvitegravir, 6-[(3-chloro-2-fluorophenyl)methyl]-1-[(2S)-1-hydroxy-3-methylbutan-2-yl]-7-methoxy-4-oxoquinoline-3-carboxylic acid, reference compound] | – | – | – | – | – | – | – | cytotoxic for cancer cells alone | – | – | – | – | – | potentiate gemcitabine | activity on their own | – | – | 3 h | moderate CYP3A inducer |
| COc1ccc(Cn2c(C)c(CNC(C)c3ccccc3)c(C(=O)O)c2C)cc1 (centres unmarked) [G396-1171] | decreasedKG-1 leukemia cell growth, similar to low dose VP-16 alone | potentiated the anti-proliferative effect of low dose VP-16 | decreased KG-1 leukemia cell growth, similar to low dose VP-16 alone | potentiated the anti-proliferative effect of low dose VP-16 | Potency in uM | inactive | increased the cytotoxicity of chemotherapy when added | cytotxoic for cancer cells alone | Cooperativity with VP-16 | No | Potency in uM | – | – | – | – | – | – | – | – |
| O=C(O)c1cc(=O)c2ccccc2o1 [R092-0025] | – | – | – | – | – | – | increased the cytotoxicity of chemotherapy when added | cytotxoic for cancer cells alone | – | – | – | – | activity on their own | potentiate gemcitabine | activity on their own | – | – | – | – |
